Species on record: Rattus norvegicus
Test: DrugMatrix - Regimen: Daily Repeat
Type: toxicity, organism-based, Sprague-Dawley
Design: regimen Daily Repeat, gender Male, age 6-8 weeks
Conditions: in vivo, po, route oral GAVAGE, […]; for ABSOLUTE BASOPHIL / ABSOLUTE EOSINOPHIL / BASOPHIL / EOSINOPHIL / NUCLEATED RED BLOOD CELLS / ABSOLUTE LYMPHOCYTE / ABSOLUTE MONOCYTE / ABSOLUTE SEGMENTED NEUTROPHIL / ERYTHROCYTE COUNT / HEMATOCRIT / HEMOGLOBIN / LEUKOCYTE COUNT / LYMPHOCYTE / MEAN CORPUSCULAR HEMOGLOBIN / MEAN CORPUSCULAR HEMOGLOBIN CONCENTRATION / MEAN CORPUSCULAR VOLUME / MONOCYTE / NEUTROPHIL / PLATELET COUNT: tissue Blood; for ALANINE AMINOTRANSFERASE / ALBUMIN / ALKALINE PHOSPHATASE / ASPARTATE AMINOTRANSFERASE / BLOOD UREA NITROGEN / CARBON DIOXIDE / CHLORIDE / CHOLESTEROL / CREATINE PHOSPHOKINASE / CREATININE / GLUCOSE / LACTATE DEHYDROGENASE / LIPASE / PHOSPHORUS / POTASSIUM / SODIUM / TOTAL BILIRUBIN / TOTAL PROTEIN / URIC ACID: tissue Plasma
[1] = 0 mg/kg, 72 h, dose level Control, time 3 day
[2] = 0 mg/kg, 120 h, dose level Control, time 5 day
[3] = 0.08 mg/kg, 72 h, dose level Low, time 3 day
[4] = 0.08 mg/kg, 120 h, dose level Low, time 5 day
[5] = 12 mg/kg, 72 h, dose level M1, time 3 day

SMILES: C#C[C@]1(O)CC[C@H]2[C@@H]3CCC4=CC(=O)CC[C@@H]4[C@H]3CC[C@@]21C [NORETHINDRONE]
- ABSOLUTE BASOPHIL [1]: 0 CELLS/uL
- ABSOLUTE EOSINOPHIL [1]: 14 CELLS/uL
- BASOPHIL [1]: 0%
- EOSINOPHIL [1]: 0.17%
- NUCLEATED RED BLOOD CELLS [1]: 0 /100WBC
- ABSOLUTE BASOPHIL [2]: 0 CELLS/uL
- BASOPHIL [2]: 0%
- ABSOLUTE BASOPHIL [3]: 0 CELLS/uL
- ABSOLUTE EOSINOPHIL [3]: 0 CELLS/uL
- ABSOLUTE LYMPHOCYTE [3]: 8095 CELLS/uL
- ABSOLUTE MONOCYTE [3]: 0 CELLS/uL
- ABSOLUTE SEGMENTED NEUTROPHIL [3]: 538.33 CELLS/uL
- BASOPHIL [3]: 0%
- EOSINOPHIL [3]: 0%
- ERYTHROCYTE COUNT [3]: 4.99 x10E6/uL
- HEMATOCRIT [3]: 31.97%
- HEMOGLOBIN [3]: 12.7 G/DL
- LEUKOCYTE COUNT [3]: 8.63 x10E3/uL
- LYMPHOCYTE [3]: 94.33%
- MEAN CORPUSCULAR HEMOGLOBIN [3]: 25.5 pg
- MEAN CORPUSCULAR HEMOGLOBIN CONCENTRATION [3]: 39.77 G/DL
- MEAN CORPUSCULAR VOLUME [3]: 64.07 fL
- MONOCYTE [3]: 0%
- NEUTROPHIL [3]: 5.67%
- NUCLEATED RED BLOOD CELLS [3]: 0 /100WBC
- PLATELET COUNT [3]: 1042.33 x10E3/uL
- ALANINE AMINOTRANSFERASE [3]: 76.33 u/L
- ALBUMIN [3]: 4.1 G/DL
- ALKALINE PHOSPHATASE [3]: 395.67 u/L
- ASPARTATE AMINOTRANSFERASE [3]: 84.33 u/L
- BLOOD UREA NITROGEN [3]: 13 mg/dL
- CARBON DIOXIDE [3]: 28 mmol/L
- CHLORIDE [3]: 101 MEQ/L
- CHOLESTEROL [3]: 81 mg/dL
- CREATINE PHOSPHOKINASE [3]: 236 u/L
- CREATININE [3]: 0.17 mg/dL
- GLUCOSE [3]: 185.33 mg/dL
- LACTATE DEHYDROGENASE [3]: 127 u/L
- LIPASE [3]: 24.67 u/L
- PHOSPHORUS [3]: 9.57 mg/dL
- POTASSIUM [3]: 5.52 MEQ/L
- SODIUM [3]: 144.63 MEQ/L
- TOTAL BILIRUBIN [3]: 0.1 mg/dL
- TOTAL PROTEIN [3]: 5.67 G/DL
- URIC ACID [3]: 0.77 mg/dL
- ABSOLUTE BASOPHIL [4]: 0 CELLS/uL
- ABSOLUTE EOSINOPHIL [4]: 0 CELLS/uL
- ABSOLUTE LYMPHOCYTE [4]: 11824 CELLS/uL
- ABSOLUTE MONOCYTE [4]: 160 CELLS/uL
- ABSOLUTE SEGMENTED NEUTROPHIL [4]: 1549.33 CELLS/uL
- BASOPHIL [4]: 0%
- EOSINOPHIL [4]: 0%
- ERYTHROCYTE COUNT [4]: 5.24 x10E6/uL
- HEMATOCRIT [4]: 32.97%
- HEMOGLOBIN [4]: 13 G/DL
- LEUKOCYTE COUNT [4]: 13.53 x10E3/uL
- LYMPHOCYTE [4]: 87%
- MEAN CORPUSCULAR HEMOGLOBIN [4]: 24.87 pg
- MEAN CORPUSCULAR HEMOGLOBIN CONCENTRATION [4]: 39.43 G/DL
- MEAN CORPUSCULAR VOLUME [4]: 63.07 fL
- MONOCYTE [4]: 1%
- NEUTROPHIL [4]: 12%
- NUCLEATED RED BLOOD CELLS [4]: 0 /100WBC
- PLATELET COUNT [4]: 1265.67 x10E3/uL
- ALANINE AMINOTRANSFERASE [4]: 76 u/L
- ALBUMIN [4]: 4.27 G/DL
- ALKALINE PHOSPHATASE [4]: 393 u/L
- ASPARTATE AMINOTRANSFERASE [4]: 91.67 u/L
- BLOOD UREA NITROGEN [4]: 10.67 mg/dL
- CARBON DIOXIDE [4]: 30 mmol/L
- CHLORIDE [4]: 98 MEQ/L
- CHOLESTEROL [4]: 68 mg/dL
- CREATINE PHOSPHOKINASE [4]: 173 u/L
- CREATININE [4]: 0.12 mg/dL
- GLUCOSE [4]: 150.67 mg/dL
- LACTATE DEHYDROGENASE [4]: 80.33 u/L
- LIPASE [4]: 33.67 u/L
- PHOSPHORUS [4]: 9.53 mg/dL
- POTASSIUM [4]: 5.88 MEQ/L
- SODIUM [4]: 144.2 MEQ/L
- TOTAL BILIRUBIN [4]: 0.1 mg/dL
- TOTAL PROTEIN [4]: 5.83 G/DL
- URIC ACID [4]: 0.63 mg/dL
- ABSOLUTE BASOPHIL [5]: 0 CELLS/uL
- ABSOLUTE EOSINOPHIL [5]: 0 CELLS/uL
- ABSOLUTE LYMPHOCYTE [5]: 6372.33 CELLS/uL
- ABSOLUTE MONOCYTE [5]: 130.67 CELLS/uL
- ABSOLUTE SEGMENTED NEUTROPHIL [5]: 463.67 CELLS/uL
- BASOPHIL [5]: 0%
- EOSINOPHIL [5]: 0%
- ERYTHROCYTE COUNT [5]: 5.18 x10E6/uL
- HEMATOCRIT [5]: 32.47%
- HEMOGLOBIN [5]: 12.27 G/DL
- LEUKOCYTE COUNT [5]: 6.97 x10E3/uL
- LYMPHOCYTE [5]: 90.33%
- MEAN CORPUSCULAR HEMOGLOBIN [5]: 23.7 pg
- MEAN CORPUSCULAR HEMOGLOBIN CONCENTRATION [5]: 37.8 G/DL
- MEAN CORPUSCULAR VOLUME [5]: 62.77 fL
- MONOCYTE [5]: 1.67%
- NEUTROPHIL [5]: 8%
- NUCLEATED RED BLOOD CELLS [5]: 0 /100WBC
- PLATELET COUNT [5]: 1187.33 x10E3/uL
- ALANINE AMINOTRANSFERASE [5]: 50 u/L
- ALBUMIN [5]: 4.47 G/DL
- ALKALINE PHOSPHATASE [5]: 371.33 u/L
- ASPARTATE AMINOTRANSFERASE [5]: 87.67 u/L
- BLOOD UREA NITROGEN [5]: 11.33 mg/dL
- CARBON DIOXIDE [5]: 34 mmol/L
- CHLORIDE [5]: 101.67 MEQ/L
- CHOLESTEROL [5]: 32.67 mg/dL
- CREATINE PHOSPHOKINASE [5]: 431.33 u/L
- CREATININE [5]: 0.19 mg/dL
- GLUCOSE [5]: 136.67 mg/dL
- LACTATE DEHYDROGENASE [5]: 119.33 u/L
- LIPASE [5]: 8.67 u/L
- PHOSPHORUS [5]: 11.1 mg/dL
- POTASSIUM [5]: 5.95 MEQ/L

Source: ChEMBL document CHEMBL3885881, “DrugMatrix”
